# Like-named read-outs stand apart in the source and are kept apart here. Non-standard residues stand in square brackets, D forms with d. No end group written: not given here.
# Experiments:
# [1] = test system: patients after ocular surgery; experiment: Clinical Phase II, post-surgery intraocular inflammation: safety
# Procedure: The criteria for evaluation of safety were: • a. Visual acuity by ETDRS method • b. Slit Lamp examination findings • c. The results of the ophthalmic fundus examination • d. Intra Ocular Pressure (IOP) measurements • e. Vital signs (blood pressure (BP), pulse rate (PR) and rhythm) • f. The results of the hematology and chemistry laboratory tests • g. The occurrence of Adverse Events • h. Presence (or not) of XG-102 in plasma 1 hour after the administration of study treatment in a subset of patients (approximately 30).
# An AE is therefore any unfavorable and unintended sign, symptom or disease temporally associated with the use of a medicinal product, whether or not considered related to the medicinal product.
# A Suspected Unexpected Serious Adverse Reaction (SUSAR) was defined as a suspected adverse reaction related to the treatment that is both unexpected (i.e. not consistent with the expected outcomes of the study treatment being administered) and serious.
# Patients were analyzed as treated, i.e. according to the treatment which they received. The safety set was the primary analysis set for the safety analysis.
# The present study was a double-blind study. All patients who were randomized and for whom the sub-conjunctival injection was started are included in the safety analysis by dose group. […] If the study treatment eye drops were stopped prematurely (i.e. before day 21), the patients concerned continued follow-up until day 28, in accordance with the study protocol.
# Investigators assessed (in a blinded manner) the relationship of each reported AE to any of the study treatments. An event was considered to be related to study treatment if the Investigator ticked either ‘possible’ or ‘probable’ as the reply to this question.
# [2] = test system: Sprague-Dawley albino rats, light-induced photoreceptor cell death; format: in vivo; settings: PBN
# Source text: The aim of this study was to investigate the dose effect of XG-102 on light-induced photoreceptor cell death.
# 50 male Rat (Sprague-Dawley (albinos rat); approximately 8 weeks; 200-250 g (on ordering)) have been used. Rats are most commonly used in this experimental model. Animals were examined before study, and particular attention was paid to the eyes. Animals were held in observation for 2 weeks following their arrival. Animals were observed daily for signs of illness. Only healthy animals with no ocular abnormalities were accepted for use in experiments. Animals were housed individually in standard cages (420×270×190 mm)^ii. All animals were housed under identical environmental conditions. The temperature was held at 22±2° C. and the relative humidity at 55±10%. Rooms were continuously ventilated (15 times per hour). A cycle of 12 hours light (200-300 lx) and 12 hours darkness was automatically controlled. These parameters were continuously controlled and recorded. Throughout the study, animals had free access to food and water. They were fed a standard dry pellet diet. Tap water was available ad libitum from plastic bottles.
# Forty-eight (48) rats were randomly divided into six (6) groups of eight (8) animals each. Test item (XG-102: 30 mg/ml, 3 mg/ml, and 0.3 mg/ml) and vehicle (0.9% NaCl) were administered by intravitreal injection in right eyes the day before induction. The reference (Phenyl-N-test-Butylnitrone (PBN) (50 mg/kg)) and vehicle were intraperitoneally injected 30 min before induction then, 3 times during 12 hours of light exposition, then once after induction. Animals were placed in constant light (7000 lux) for 24 h. Electroretinograms (ERG) were recorded before light treatment and on days 9, 16 and 23 after induction. Eyes were then taken for histology and outer nuclear layer (ONL) thickness assessment. The table below summarizes the allocation of animals in treatment groups:
# For the intravitreal injection animals were anesthetized by intramuscular injection of a mixture of xylazine/ketamine. Test item (5 μl) and vehicle (5 μl) were injected in the right eye. The injection was performed under an operating microscope in the supratemporal area at pars plana using a 33G-needle mounted on a 50 μl Hamilton. The filled syringe was mounted into the UltraMicroPump III to achieve accurate injection in microliter range. Reference and vehicle were injected intraperitoneally at a dose volume of 2.5 ml/kg using a 30G-needle mounted on a 1 ml-syringe.
# Light Exposure: The rats that had been dark-adapted overnight were exposed for 24 hours to a continuous white fluorescent light (7000 Ix) in clear plastic cages. Each cage contained one rat. After exposure, the rats returned to rearing cyclic light conditions.
# ERG was recorded before induction and 7, 14 and 21 days after cessation of exposure (Days 9, 16 and 23) on right eyes of dark-adapted and anesthetized animals. The latency times (for a- and b-wave) and the a-wave and b-wave amplitudes were measured for each ERG; the latency times were expressed as millisecond and the a-wave and b-wave as a percentage of the baseline value obtained before light exposure. 15 min before measurement 10 μl Mydriaticum® (0.5% tropicamide) were instilled for pupillary dilatation.
# ERG Parameters: • Color: white maximum. • Maximum intensity: 2.6 cd·s/m^2 (0 dB); Duration 0.24 ms; number of flash: 1. • Filter: 50 Hz. • Impedence Threshold: 90 kΩ.
# Measurement of the ONL Thickness: After ERG testing, animal was euthanized by an overdose of pentobarbital and the right eyes were enucleated, fixed and embedded in paraffin. Sections (5 μm thick) were performed along the vertical meridian and stained with Trichrome-Masson. The vertical meridian included the optic nerve.
# Group mean values and standard deviation were calculated. A statistical Mann and Whitney test was used to evaluate the differences between pair-wise groups. For comparison between time-point into each vehicle groups, a Friedman test was used. […]
# [3] = test system: female Sprague-Dawley rats, CYP-induced cystitis; experiment: CYP-induced acute cystitis, intravenous treatment; format: in vivo, rat; settings: XG-102 2 mg/kg i.v. or ibuprofen 10 mg/kg i.v., 24 h post-CYP
# Procedure: (§1) This preclinical model is well-used to test therapeutic approaches for the treatment of interstitial cystitis/painful bladder syndrome (IC/PBS).
# (§2) Animals were acclimatized to the laboratory conditions for at least 3 days before the start of any experiments. The animals were allocated to the following four experimental groups (n=10 animals per group):
# (§3) To induce acute cystitis, a single i.p. injection of CYP at a dose of 150 mg/kg in a final volume of 5 mL/kg was performed. Control rats received physiological saline under the same experimental conditions as CYP (final volume of 5 mL/kg, i.p.).
# (§4) On the day of each experiment, weight of rats was recorded.
# Standardized conditions including fixed time-of-day (a.m. to minimize the potential circadian variations in the behaviours responses) and single-experimenter testing of all animals were applied to minimize variability behavior-based pain testing. Visceral pain including allodynia and hyperalgesia was evaluated by applying to the lower abdomen, close to the urinary bladder, a set of 8 calibrated von Frey filaments of increasing forces (1, 2, 4, 6, 8, 10, 26 and 60 g) with an interstimulus interval of 5 seconds. Prior testing, the abdominal area designed for mechanical stimulation of each animal was shaved. […]
# [4] = test system: female Sprague-Dawley rats, CYP-induced cystitis; experiment: CYP-induced acute cystitis, intravesical treatment; format: in vivo, rat; settings: 50 mg/mL i.ves., 24 h post-CYP
# Procedure: as §1, §2, §3, §4
# Standardized conditions including fixed time-of-day (a.m. to minimize the potential circadian variations in the behaviours responses) and single-experimenter testing of all animals were applied to minimize variability behavior-based pain testing. Visceral pain including allodynia and hyperalgesia was evaluated by applying to the lower abdomen, close to the urinary bladder, a set of 8 calibrated von Frey filaments of increasing forces (1, 2, 4, 6, 8, 10, 26 and 60 g) with an interstimulus interval of 5 seconds. Prior testing, the abdominal area designed for mechanical stimulation of each animal was shaved. Animals were then placed on a raised wire mesh floor under individual transparent Plexiglas box and acclimatized for at least 30 minutes before starting the von Frey test. Filaments were then applied 1-2 seconds through the mesh floor with enough strength to cause the filament to slightly bend. Each filament was tested 3 times. Care was taken to stimulate different areas within the lower abdominal region in the vicinity of the urinary bladder to avoid desensitization.
# Urinary bladders were rapidly collected and cleaned from lipoid tissue. […] Finally, wall thickness was measured using a digital caliper by placing the bladder wall between the two outside jaws.
# TC-3 cell cultures = experiment: Cellular import of fluorescein-labeled TAT and TAT-IB1(s) peptides; format: cell-based; settings: fluorescein-labeled peptide 1 μM
# Procedure: The ability of the L- and D-enantiomeric forms of TAT and TAT-IB1(s) peptides (“TAT-IB peptides”) to enter cells was evaluated. L-TAT, D-TAT, L-TAT-IB1(s), and D-TAT-IB1(s) peptides [SEQ ID NOs: 5, 6, 9 and 12, respectively] were labeled by N-terminal addition of a glycine residue conjugated to fluorescein. Labeled peptides (1 μM) were added to TC-3 cell cultures, which were maintained as described in Example 3. At predetermined times cells were washed with PBS and fixed for five minutes in ice-cold methanol-acetone (1:1) before being examined under a fluorescence microscope. Fluorescein-labeled BSA (1 μM, 12 moles/mole BSA) was used as a control.
# Little to no signal was present at 48 hours.
# Fluorescent signals from these all-D retro-inverso peptides were still very strong 1 week later, and the signal was only slightly diminished at 2 weeks post treatment.
# JNK = settings: Dickens et al. 1997; cited from earlier work
# TC-3 cells = experiment: IL-1 induced pancreatic beta-cell death; format: cell-based; settings: single addition 1 μM, two days with IL-1
# Procedure: Inhibition of IL-1 induced pancreatic beta-cell death by the D-TAT-IB1(s) peptide was analyzed. […] Apoptotic cells were then counted after two days of incubation with IL-1 by use of Propidium Iodide and Hoechst 33342 nuclear staining. A minimum of 1,000 cells were counted for each experiment. Standard Error of the Means (SEM) are indicated, n=5. […] Long term inhibition of IL-1P induced cell-death by the D-TAT-IB1 peptide was also analyzed. […] Apoptotic cells were then counted after 15 days of incubation with IL-1 by use of propidium iodide and Hoechst 33342 nuclear staining. […] A minimum of 1.000 cells were counted for each experiment.
# [5] = Dexamethasone group, blinded assessment
molecule,measurement,setting,value
"C[C@@H]1C[C@H]2[C@@H]3CCC4=CC(=O)C=C[C@]4(C)[C@@]3(F)[C@@H](O)C[C@]2(C)[C@@]1(O)C(=O)CO [Dexamethasone, reference compound]",Reported AEs by severity: Mild,[1]; Dexamethasone dose group,42 (76.4%) number of events (% of reported events)
same,Reported AEs by severity: Moderate,[1]; Dexamethasone dose group,9 (16.4%) number of events (% of reported events)
same,Reported AEs by severity: Severe,[1]; Dexamethasone dose group,4 (7.3%) number of events (% of reported events)
same,AEs considered by the Investigator to be related to Dexamethasone,[1]; [5],2 (3.6%) Total # events (%)
same,AEs considered by the Investigator to be related to XG-102,[1]; [5],13 (23.64%) Total # events (%)
same,"Intraocular pressure increased, patients",[1]; dexamethasone,14%
same,events in SOC EYE DISORDERS,[1]; dexamethasone,30 events
same,patients with SAEs,[1]; dexamethasone,2 patients
same,patients with events in SOC EYE DISORDERS,[1]; dexamethasone,16 (32%)
"CC(C)(C)[N+]([O-])=Cc1ccccc1 [PBN, Phenyl-N-tert-Butylnitrone]",recovery of the b-wave (% of baseline),[2]; Day 9,100%
same,recovery of the b-wave (% of baseline),[2]; Day 16,103.6%
same,decrease of ONL thickness vs untreated eyes,[2]; Day 23,16%
same,recovery of the a-wave (% of baseline),[2]; Day 23,76.2%
same,recovery of the b-wave (% of baseline),[2]; Day 23,102.4%
CC(C)Cc1ccc(C(C)C(=O)O)cc1 (stereo not shown) [ibuprofen],nociceptive scores,[3],significantly decrease nociceptive scores
same,nociceptive threshold,[3],Nociceptive threshold was significantly increased by ibuprofen treatment
same,haemorrhage scores,[4],no significant change was observed regarding haemorrhage scores
same,nociceptive scores,[4],significant decrease of nociceptive scores
same,urinary bladder wall thickness,[4],a significant decrease was observed in urinary bladder wall thickness
same,nociceptive threshold,[4]; vs vehicle,Nociceptive threshold was significantly increased by ibuprofen treatment
GRKKRRQRRR (Description of sequence Peptide L-TAT (see Table 1)),entry into cells,TC-3 cell cultures,efficiently and rapidly (less than five minutes) entered cells
GRKKRRQRRRPPRPKRPTTLNLFPQVPRSQD [L-TAT-IB1(s)],entry into cells,TC-3 cell cultures,efficiently and rapidly (less than five minutes) entered cells
IPSPSVEEPHKHRPTTLRLTTLGAQDS (Description of sequence Peptide IB2-long (see Table 1)),efficiency in binding JNK relative to c-Jun or ATF2,JNK,approximately 100 fold
PGTGCGDTYRPKRPTTLNLFPQVPRSQDT (Description of sequence peptide IB1-long (see Table 1)),efficiency in binding JNK relative to c-Jun or ATF2,JNK,approximately 100 fold
TDQSRPVQPFLNLTTPRKPRYTDPPRRRQRRKKRG ([dT][dD][dQ][dS][dR][dP][dV][dQ][dP][dF][dL][dN][dL][dT][dT][dP][dR][dK][dP][dR][dY][dT][dD][dP][dP][dR][dR][dR][dQ][dR][dR][dK][dK][dR]G) [D-TAT-IB1],IL-1 induced apoptosis,TC-3 cells,decreased IL-1 induced apoptosis to a similar extent as L-TAT-IB peptides
